Measured values from US5877187A, “Benzimidazole derivatives with antihistaminic activity” (Fabrica Espanola de Productos Quimicos y Farmaceuticos S.A. …, priority 1996, dated 1999).

Key:
[1] = biological target: T1, guinea pig ileum H1 -receptor histamine (Cavia porcellus, UniProt P31389); experiment: Blocking of histamine-induced contractions in the isolated guinea pig ileum; format: cell-based; settings: calculated, mixed antagonist
T1 construct: isolated guinea pig ileum; from tissue; host or cells: isolated guinea pig ileum
T1 sequence (P31389 whole entry): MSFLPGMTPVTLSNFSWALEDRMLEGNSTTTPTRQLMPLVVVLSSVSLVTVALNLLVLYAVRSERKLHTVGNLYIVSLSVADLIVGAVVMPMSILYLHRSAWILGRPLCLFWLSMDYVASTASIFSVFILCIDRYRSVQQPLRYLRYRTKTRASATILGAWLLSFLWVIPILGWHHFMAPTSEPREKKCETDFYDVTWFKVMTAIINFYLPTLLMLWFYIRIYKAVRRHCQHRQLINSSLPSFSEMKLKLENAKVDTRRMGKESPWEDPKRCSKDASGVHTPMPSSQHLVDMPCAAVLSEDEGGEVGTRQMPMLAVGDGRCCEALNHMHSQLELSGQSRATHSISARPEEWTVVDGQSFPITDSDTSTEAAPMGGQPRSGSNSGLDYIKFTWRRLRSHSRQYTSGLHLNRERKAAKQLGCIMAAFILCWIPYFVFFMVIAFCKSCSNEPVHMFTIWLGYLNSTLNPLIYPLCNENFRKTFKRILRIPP
From the text: (§1) Compounds of formula I have useful pharmacological properties. In particular, they are potent H1 antihistamines.

[2] = test system: histamine-induced cutaneous capillary permeability; experiment: Inhibition of the increment of histamine-induced cutaneous capillary permeability in rats; format: in vivo, rat
From the text: as §1

[3] = test system: acetylcholine-induced contractions in isolated guinea pig ileum; experiment: Antagonism of acetylcholine-induced contractions in isolated guinea pig ileum; format: cell-based; design: dose or concentration left out as unconfirmed
[4] = test system: spontaneous motor activity; experiment: Spontaneous motor activity of the rat; format: in vivo; settings: 100 mg/kg p.o.
[5] = test system: ECG / QTc interval; experiment: ECG and QTc interval in rats after i.v. administration; format: in vivo, rat; settings: 20 mg/kg i.v.

CCOCCn1c(C2CCN(CCc3ccc(C(C)(C)C(=O)O)cc3)CC2)nc2ccccc21 [Ib (R1 =Et), 2-[4-(2-(4-(1-(2-ethoxyethyl)benzimidazole-2-yl)piperidine-1-yl)ethyl)phenyl]-2-methylpropanoic Acid]
pD2' [1]: 6.50 | Kb ([1]; read-out: pA2 (converted)): 7.94 to 10.5 nM | duration of significant activity in excess of 50% ([2]; 5 mg/kg p.o.): at least 6 hours | inhibition at 5 mg/kg ([2]; Rattus norvegicus, po, 5 mg/kg p.o., maintained for at least 6 hours, read-out: activity (inhibition of the increase in capillary permeability)): > 50% | ED50 ([2]; Rattus norvegicus, po, read-out: DE50, inhibition of the increase in capillary permeability): ~2 mg/kg | antagonism of acetylcholine-induced contractions [3]: not able to antagonize significantly | effect on spontaneous motor activity [4]: does not modify | increase of the QTc interval [5]: nor does it increase the QTc interval | morphological ECG disturbance [5]: induces no morphological ECG disturbance
